Measured values published in ChEMBL document CHEMBL5608170, “An insight into sustainable and green chemistry approaches for the synthesis of quinoline derivatives as anticancer agents” (Eur J Med Chem, 2024).
Values after ≈ are worked out from the molar mass of the structure shown. *1 amine or outer side, *2 acyl side, *3 side chain or, on linkers, in order; H or OH if unused. Where a SMILES comes first, the peptide text is derived from it. Bridges are numbered along the chain shown (N, C = ends). Roman numbers before positions name the chains, in order. [ ]: non-standard residue; d: D form. Actinocin(1to9) = Cc1c2oc3c(C)ccc(C(=O)[*:2])c3nc-2c(C(=O)[*:1])c(N)c1=O; NMeV = CN[C@H](C(=O)O)C(C)C; Sar = CNCC(=O)O

Tests used:
HeLa [1] = test: Anticancer activity against human HeLa cells assessed as reduction in cell growth incubated for 48 hrs by MTT assay; format: functional, cell-based
MCF7 [2] = test: Anticancer activity against human MCF7 cells assessed as reduction in cell growth incubated for 48 hrs by MTT assay; format: functional, cell-based; details: MCF7, 48 h
HBL-100 = test: Growth inhibition of human HBL-100 cells; format: functional
A549 [3] = test: Growth inhibition of human A549 cells; format: functional
HeLa [4] = test: Growth inhibition of human HeLa cells; format: functional
SW1573 = test: Growth inhibition of human SW1573 cells; format: functional
T47D = test: Growth inhibition of human T47D cells; format: functional
WiDr = test: Growth inhibition of human WiDr cells; format: functional
PC-3 = test: Cytotoxicity against human PC-3 cells assessed as reduction in cell growth measured for 48 hrs by MTT assay; format: functional, cell-based; details: PC-3, 48 h
DU-145 = test: Cytotoxicity against human DU-145 cells assessed as reduction in cell growth measured for 48 hrs by MTT assay; format: functional, cell-based; details: DU-145, 48 h
HCT 116 TP53(-/-) = test: Antiproliferative activity against human HCT116-p53-null cells assessed as reduction in cell viability by MTT assay; format: functional, cell-based
MDA-MB-231 [5] = test: Cytotoxicity against human MDA-MB-231 cells assessed as reduction in cell viability incubated for 48 hrs by MTT assay; format: functional, cell-based; details: MDA-MB-231, 48 h
HeLa [6] = test: Growth inhibition of human HeLa cells by SRB assay; format: functional
TK-10 = test: Growth inhibition of human TK-10 cells at 10 uM by SRB assay relative to control; format: functional; details: read-out: GI
UO-31 = test: Growth inhibition of human UO-31 cells at 10 uM by SRB assay relative to control; format: functional; details: read-out: GI
HOP-92 = test: Growth inhibition of human HOP-92 cells at 10 uM by SRB assay relative to control; format: functional; details: read-out: GI
CAKI-1 = test: Growth inhibition of human CAKI-1 cells at 10 uM by SRB assay relative to control; format: functional; details: read-out: GI
Hs-578T = test: Growth inhibition of human Hs-578T cells at 10 uM by SRB assay relative to control; format: functional; details: read-out: GI
A549 [7] = test: Antiproliferative activity against human A549 cells assessed as reduction in cell viability by MTT assay; format: functional, cell-based
NCI-H460 = test: Antiproliferative activity against human NCI-H460 cells assessed as reduction in cell viability by MTT assay; format: functional, cell-based
MCF7 [8] = test: Cytotoxicity against human MCF7 cells assessed as reduction in cell viability incubated for 24 hrs by MTT assay; format: functional, cell-based; details: MCF7, 24 h
HepG2 = test: Cytotoxicity against human HepG2 cells assessed as reduction in cell viability incubated for 24 hrs by MTT assay; format: functional, cell-based; details: HepG2, 24 h
A549 [9] = test: Cytotoxicity against human A549 cells assessed as reduction in cell viability incubated for 72 hrs by MTT assay; format: functional, cell-based; details: A549, 72 h
HT-29 = test: Cytotoxicity against human HT-29 cells assessed as reduction in cell viability incubated for 72 hrs by MTT assay; format: functional, cell-based; details: HT-29, 72 h
K562 = test: Growth inhibition of human K562 cells at 10 uM incubated for 24 hrs by MTT assay; format: functional; details: read-out: GI
B16-F10 = test: Cytotoxicity against mouse B16-F10 cells assessed as reduction in cell viability incubated for 48 hrs by MTT assay; format: functional, cell-based; details: B16-F10, 48 h
[10] = Cytotoxicity against human HEp-2C cells assessed as reduction in cell viability incubated for 72 hrs by MTT assay; format: functional, cell-based; details: Hep2C
HCT-116 = test: Cytotoxicity against human HCT-116 cells assessed as reduction in cell viability incubated for 24 hrs by MTT assay; format: functional, cell-based; details: HCT-116, 24 h
A549 [11] = test: Cytotoxicity against human A549 cells assessed as reduction in cell viability incubated for 24 hrs by MTT assay; format: functional, cell-based; details: A549, 24 h
MDA-MB-231 [12] = test: Cytotoxicity against human MDA-MB-231 cells assessed as reduction in cell growth measured for 48 hrs by MTT assay; format: functional, cell-based; details: MDA-MB-231, 48 h
MCF7 [13] = test: Cytotoxicity against human MCF7 cells assessed as reduction in cell viability by MTT assay; format: functional, cell-based

COc1cccc(-n2nnc3c2-c2ccc4cccnc4c2OC3)c1
IC50 (HeLa [1]): 15.7 µM | IC50 (MCF7 [2]): 31.4 µM

COc1cc2nccc(Oc3ccc(NC(=O)NC4CC4)c(Cl)c3)c2cc1C(N)=O [LENVATINIB]
GI50 (HBL-100): 10 µM | GI50 (A549 [3]): 12 µM | GI50 (HeLa [4]): 4 µM | GI50 (SW1573): 8 µM | GI50 (T47D): 10 µM | GI50 (WiDr): 19 µM

O=C1N(c2ccc(Cl)cc2)c2[nH]c(=O)[nH]c(=O)c2C12c1ccccc1Nc1c2[nH]c(=O)[nH]c1=O (centres undefined)
IC50 (PC-3): 19.9 µM | IC50 (DU-145): 16.5 µM

COc1ccc(Nc2nc3ccccc3c(NCc3ccccc3Cl)c2[N+](=O)[O-])cc1
IC50 (HCT 116 TP53(-/-)): 4.8 µM

COC1=C(N)C(=O)c2nc(-c3nc(C(=O)O)c(C)c(-c4ccc(OC)c(OC)c4O)c3N)ccc2C1=O [STREPTONIGRIN]
IC50 (MDA-MB-231 [5]): 30.5 µM

CC(=O)NC1=NN(C(C)=O)C(c2cc3cc(Cl)ccc3n3nnnc23)S1 (centres undefined)
GI50 (HeLa [6]): < 0.1 µM

Cc1cc(=O)n(C(=O)Nc2ccccc2)c2cc(O)ccc12
inhibition of growth at 10 µM (TK-10): 82.9% | inhibition of growth at 10 µM (UO-31): 23.1% | inhibition of growth at 10 µM (HOP-92): 16% | inhibition of growth at 10 µM (CAKI-1): 12.4% | inhibition of growth at 10 µM (Hs-578T): 11.5%

COc1ccccc1Nc1nc2ccccc2c(Nc2ccccc2OC)c1[N+](=O)[O-]
IC50 (A549 [7]): 6.5 µM | IC50 (NCI-H460): 5.4 µM

Cc1ccc2ccc3c(c2n1)OC(N)=C(C#N)C3c1cccc(Cl)c1 (centres undefined)
IC50 (MCF7 [8]): 5.79 µg/mL (≈ 16.6 µM) | IC50 (HepG2): 3.01 µg/mL (≈ 8.65 µM)

COc1cc(/C=C2\OCc3nc4ccccc4c(C)c3C2=O)cc(OC)c1OC
IC50 (A549 [9]): 3.68 µg/mL (≈ 9.4 µM) | IC50 (HT-29): 6.69 µg/mL (≈ 17.1 µM)

COc1ccc(-c2cn3c4c(cccc24)CCC3)cc1
inhibition of growth at 10 µM (K562): 66%

Cc1c2oc3c(C)ccc(C(=O)N[C@@H]4C(=O)N[C@H](C(C)C)C(=O)N5CCC[C@H]5C(=O)N(C)CC(=O)N(C)[C@@H](C(C)C)C(=O)O[C@@H]4C)c3nc-2c(C(=O)N[C@@H]2C(=O)N[C@H](C(C)C)C(=O)N3CCC[C@H]3C(=O)N(C)CC(=O)N(C)[C@@H](C(C)C)C(=O)O[C@@H]2C)c(N)c1=O [DACTINOMYCIN] (I: T[dV]P[Sar][NMeV] / II: T[dV]P[Sar][NMeV]; ester I:1-I:C, II:1-II:C; linker I:N-II:N via Actinocin(1to9))
IC50 (B16-F10): 13.4 µM

O=C1N(c2ccccc2S)c2[nH]c(=O)[nH]c(=O)c2C12c1ccccc1Nc1c2[nH]c(=O)[nH]c1=O (centres undefined)
IC50 (PC-3): 18.4 µM | IC50 (DU-145): 17.7 µM

Clc1cccc(NCN2CCCc3ccccc32)c1
IC50 [10]: 11.9 µM

N#CC1=C(N)Oc2c(ccc3cccnc23)C1c1ccc(Br)cc1 (centres undefined)
IC50 (MCF7 [8]): 1.17 µg/mL (≈ 3.09 µM) | IC50 (HCT-116): 1.3 µg/mL (≈ 3.44 µM) | IC50 (HepG2): 1.41 µg/mL (≈ 3.73 µM) | IC50 (A549 [11]): 38 µg/mL (≈ 100 µM)

O=C1N(c2ccc([N+](=O)[O-])cc2[N+](=O)[O-])c2[nH]c(=O)[nH]c(=O)c2C12c1ccccc1Nc1c2[nH]c(=O)[nH]c1=O (centres undefined)
IC50 (MDA-MB-231 [12]): 10.6 µM

N#CC1=C(N)Oc2c(cc(Cl)c3cccnc23)C1c1cccc(Cl)c1Cl (centres undefined)
IC50 (MCF7 [8]): 2.47 µg/mL (≈ 6.13 µM) | IC50 (HCT-116): 7.94 µg/mL (≈ 19.7 µM) | IC50 (HepG2): 1.48 µg/mL (≈ 3.68 µM) | IC50 (A549 [11]): 15.6 µg/mL (≈ 38.7 µM)

O=[N+]([O-])c1c(Nc2ccc(F)c(Cl)c2)nc2ccccc2c1Nc1ccc(F)c(Cl)c1
IC50 (HCT 116 TP53(-/-)): 5.1 µM

COC(=O)c1c(C(F)(F)F)nc2c(c1-c1ccc(S(=O)(=O)c3ccccc3)cc1)C(=O)CC(C)(C)C2
IC50 (MCF7 [13]): 0.002 µM

N#CC1=C(N)Oc2c(cc(Cl)c3cccnc23)C1c1cccc(Cl)c1 (centres undefined)
IC50 (MCF7 [8]): 0.9 µg/mL (≈ 2.44 µM) | IC50 (HCT-116): 3.04 µg/mL (≈ 8.26 µM) | IC50 (HepG2): 0.7 µg/mL (≈ 1.9 µM) | IC50 (A549 [11]): 2.67 µg/mL (≈ 7.25 µM)
